From patent EP4603105A1, “PHARMACEUTICAL COMPOSITION CONTAINING CYCLIC COMPOUND HAVING SELECTIVE KRAS INHIBITORY EFFECT AGAINST HRAS AND NRAS” (CHUGAI SEIYAKU KABUSHIKI KAISHA, priority 2022, dated 2024)
Where a SMILES comes first, the peptide text is derived from it. Bridges are numbered along the chain shown (N, C = ends). [ ]: non-standard residue; d: D form. The star is where a group is joined. hPhe(3-Cl-4-CF3) = N[C@@H](CCc1ccc(C(F)(F)F)c(Cl)c1)C(=O)O; NPrPhe(4-CF3) = CCCN[C@@H](Cc1ccc(C(F)(F)F)cc1)C(=O)O; NMeGly(cPent) = CN[C@H](C(=O)O)C1CCCC1; Hyp = O=C(O)[C@@H]1C[C@@H](O)CN1; NMeD = CN[C@@H](CC(=O)O)C(=O)O; NMeL = CN[C@@H](CC(C)C)C(=O)O; NMeAbu = CC[C@H](NC)C(=O)O; Morpholide = C1CN(*)CCO1; NMeA = CN[C@@H](C)C(=O)O; Ac5c = NC1(C(=O)O)CCCC1; Aze = O=C(O)[C@@H]1CCN1; Ac4c = NC1(C(=O)O)CCC1; X11 = CC1(C)CCN(*)C1; NEtG = CCNCC(=O)O; Sar = CNCC(=O)O

Legend:
[1] = target: GDP-bound NRAS wild-type protein (Homo sapiens, UniProt P01111); test: Binding to NRAS by surface plasmon resonance (SPR), KD and KD ratio to KRAS
GDP-bound NRAS wild-type protein, sequence (P01111 whole entry): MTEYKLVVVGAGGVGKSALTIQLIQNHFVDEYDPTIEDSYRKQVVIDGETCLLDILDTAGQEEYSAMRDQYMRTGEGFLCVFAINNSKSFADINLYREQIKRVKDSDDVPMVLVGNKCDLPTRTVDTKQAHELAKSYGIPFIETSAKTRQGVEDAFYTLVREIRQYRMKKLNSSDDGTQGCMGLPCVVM
Procedure, shortened: (§1)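 Measured at 30°C: SPR with GDP-loaded, E. coli-expressed biotin-Avi RAS captured (~100–300 RU), ascending 75 s compound injections, HBS pH 7.4 with GDP, MgCl2, 4% DMSO. KD from 1:1 fit.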

HRAS wild-type protein = HRAS wild-type protein (Homo sapiens, UniProt P01112); test: Binding to HRAS by surface plasmon resonance (SPR), KD and KD ratio to KRAS
HRAS wild-type protein, sequence (P01112 whole entry): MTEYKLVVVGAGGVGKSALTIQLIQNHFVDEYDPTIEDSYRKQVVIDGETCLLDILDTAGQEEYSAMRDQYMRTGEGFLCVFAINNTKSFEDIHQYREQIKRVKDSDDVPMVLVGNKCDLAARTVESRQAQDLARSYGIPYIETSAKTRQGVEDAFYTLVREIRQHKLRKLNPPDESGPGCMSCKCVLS
Procedure, shortened: as §1

[2] = system: human lung cancer strain NCI-H441; type: cell-based
Procedure, shortened: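 Signal came from […] measured per well once the reagent was added. Beforehand, cells were cultured at 37°C and 5% carbon dioxide on a compound series serially diluted in dimethyl sulfoxide.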

[3] = ratio of KD for GDP-bound NRAS wild-type protein to KD for KRAS
[4] = ratio of KD for HRAS wild-type protein to KD for KRAS
[5] = ratio of the KD value with respect to GDP-bound NRAS wild-type protein to the KD value with respect to KRAS
[6] = ratio of the KD value with respect to HRAS wild-type protein to the KD value with respect to KRAS

SMILES	NRAS /KRAS [1, 3]	HRAS /KRAS (HRAS wild-type protein; [4])	IC50 [2] [nM]	NRAS /KRAS ([1]; ratio of KD value for GDP-bound NRAS wild-type protein to KD value for KRAS (SPR))	HRAS /KRAS (HRAS wild-type protein; ratio of KD value for HRAS wild-type protein to KD value for KRAS (SPR))	NRAS /KRAS [1, 5]	HRAS /KRAS (HRAS wild-type protein; [6])
CCCN1C(=O)[C@@H]2CCN2C(=O)[C@H](C)N(C)C(=O)[C@H]([C@@H](C)CC)NC(=O)[C@H](CC)N(C)C(=O)C[C@@H](C(=O)N2CCOCC2)N(C)C(=O)[C@H](C2CCCC2)N(C)C(=O)C2(CCCC2)NC(=O)[C@@H]2CCCN2C(=O)[C@H](CCc2ccc(C(F)(F)F)c(Cl)c2)NC(=O)CN(C)C(=O)[C@@H]1Cc1ccc(C(F)(F)F)cc1 [PP0194] ([NMeAbu]I[NMeA][Aze][NPrPhe(4-CF3)][Sar][hPhe(3-Cl-4-CF3)]P[Ac5c][NMeGly(cPent)][NMeD]-Morpholide; lactam N-11)	C (A compound having a KD ratio of 0.1 or more and less than 3 is denoted as C)	B (a compound having 3 or more and less than 10 is denoted as B)	1.9				
CC[C@H](C)[C@@H]1NC(=O)[C@H](C)N(C)C(=O)C[C@@H](C(=O)N(C)C)N(C)C(=O)[C@H](C2CCCC2)N(C)C(=O)C2(CC(C)(C)C2)NC(=O)[C@@H]2CC(F)(F)CN2C(=O)[C@H](CCc2cc(F)c(C(F)(F)F)c(F)c2)NC(=O)CN(C)C(=O)[C@H](Cc2ccc(C(F)(F)F)cc2)N2CC/C=C\C[C@@H](C2=O)N(C)C(=O)CN(C)C1=O [PP1707]			7.4	AA (a compound having 20 or more is denoted as AA)	A (a compound having 10 or more and less than 20 is denoted as A)		
CCCN1C(=O)CN(C)C(=O)[C@@H]2CCN2C(=O)[C@H]([C@@H](C)CC)NC(=O)[C@H](CC(C)C)N(C)C(=O)C[C@@H](C(=O)N(C)C)N(C)C(=O)[C@H](C2CCCC2)N(C)C(=O)C2(CCCC2)NC(=O)[C@@H]2C[C@@H](OCC)CN2C(=O)[C@H](CCc2ccc(C(F)(F)F)c(Cl)c2)NC(=O)CN(C)C(=O)[C@@H]1Cc1ccc(C(F)(F)F)cc1 [PP0433] ([NMeL]I[Aze][Sar][NPrPhe(4-CF3)][Sar][hPhe(3-Cl-4-CF3)][Hyp](Et)[Ac5c][NMeGly(cPent)][NMeD]-NMe2; lactam N-11)			11			B (a compound having 3 or more and less than 10 is denoted as B)	B (a compound having 3 or more and less than 10 is denoted as B)
CCCN1C(=O)CN(C)C(=O)CN(C)C(=O)[C@H]([C@@H](C)CC)NC(=O)[C@H](CC(C)C)N(C)C(=O)C[C@@H](C(=O)N2CCC(C)(C)C2)N(C)C(=O)[C@H](C2CCCC2)N(C)C(=O)C2(CCCC2)NC(=O)[C@@H]2CCCN2C(=O)[C@H](CCc2ccc(C(F)(F)F)c(Cl)c2)NC(=O)CN(C)C(=O)[C@@H]1Cc1ccc(C(F)(F)F)cc1 [PP0177] ([NMeL]I[Sar][Sar][NPrPhe(4-CF3)][Sar][hPhe(3-Cl-4-CF3)]P[Ac5c][NMeGly(cPent)][NMeD]-X11; lactam N-11)	B (a compound having 3 or more and less than 10 is denoted as B)	C (A compound having a KD ratio of 0.1 or more and less than 3 is denoted as C)	34.4				
CCO[C@@H]1C[C@H]2C(=O)NC3(CCC3)C(=O)N(C)[C@@H](C3CCCC3)C(=O)N(C)[C@H](C(=O)N(C)C)CC(=O)N(C)[C@@H](Cc3cccc(F)c3)C(=O)N[C@@H]([C@@H](C)CC)C(=O)N(C)CC(=O)N(C)[C@H]3C/C=C\CCN(C3=O)[C@@H](Cc3ccc(C(F)(F)F)cc3)C(=O)N(C)CC(=O)N[C@@H](CCc3cc(F)c(C(F)(F)F)c(F)c3)C(=O)N2C1 [PP1126]	A (a compound having 10 or more and less than 20 is denoted as A)	A (a compound having 10 or more and less than 20 is denoted as A)	7.1				
CCO[C@@H]1C[C@H]2C(=O)NC3(CC(C)(C)C3)C(=O)N(C)[C@@H](C3CCCC3)C(=O)N(C)[C@H](C(=O)N(C)CC)CC(=O)N(C)[C@@H](CC(C)C)C(=O)N[C@@H]([C@@H](C)CC)C(=O)N(C)CC(=O)N(C)[C@H]3C/C=C\CCN(C3=O)[C@@H](Cc3ccc(C(F)F)cc3)C(=O)N(C)CC(=O)N[C@@H](CCc3ccc(C(F)(F)F)c(Cl)c3)C(=O)N2C1 [PP2829]	A (a compound having 10 or more and less than 20 is denoted as A)	A (a compound having 10 or more and less than 20 is denoted as A)	7.9				
CCCN1C(=O)CN(C)C(=O)CN(CC)C(=O)[C@H]([C@@H](C)CC)NC(=O)[C@H](CC(C)C)N(C)C(=O)C[C@@H](C(=O)N(C)C)N(C)C(=O)[C@H](C2CCCC2)N(C)C(=O)C2(CCC2)NC(=O)[C@@H]2CCCN2C(=O)[C@H](CCc2ccc(C(F)(F)F)c(Cl)c2)NC(=O)CN(C)C(=O)[C@@H]1Cc1ccc(C(F)(F)F)cc1 [PP0424] ([NMeL]I[NEtG][Sar][NPrPhe(4-CF3)][Sar][hPhe(3-Cl-4-CF3)]P[Ac4c][NMeGly(cPent)][NMeD]-NMe2; lactam N-11)			9.5			B (a compound having 3 or more and less than 10 is denoted as B)	C (A compound having a KD ratio of 0.1 or more and less than 3 is denoted as C)
